Experiment [1] addresses hGYS2 enzyme (recombinant hGYS2/GN1 protein) (Homo sapiens (Human), UniProt P54840). Nature of the experiment: GYS2 coupled enzyme assay (PK/LDH). Type of experiment: biochemical. The following applies: geometric mean of at least 2 assay runs on separate days, read-out: Avg_IC50. The method in brief: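 hGYS2/GN1 200 nM; UDP-Glc 2 mM; glycogen 0.2%; G6P 2 mM; PEP 2 mM, NADH 0.6 mM, PK/LDH 20 U/mL. 50 mM Tris pH 7.5, MgCl2, KCl, BSA, TCEP, 2.5% DMSO. Kinetic A340, 10 min. IC50 = geomean of ≥2 runs.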

For experiment [2], the system named is hGYS1 enzyme / glycogen synthesis in HeLa cells. The experiment is described as follows: GYS1 cell based assay (glycogen synthesis, Glucose-glo). The arrangement: species or system human. The following applies: Homo sapiens, HeLa, 24 h, 24 h incubation, 20 mM glucose, geometric mean of at least 2 runs. The method in brief: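 HeLa cells starved 24 h in medium containing only 1× Glutamax were plated onto compound in medium with 20 mM glucose (1% DMSO final) for 24 h, 37 °C, 5% CO2. Acid lysates were Tris-quenched, glucoamylase-digested (pH 5.3, 1 h, 37 °C) and read by Glucose-glo luminescence. IC50 came from Hill fits, as geometric mean of ≥2 runs.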

The target of experiment [3] is hGYS1 enzyme (recombinant hGYS1/GN1 protein) (Homo sapiens (Human), UniProt P13807). The experiment is described as follows: GYS1 coupled enzyme assay (PK/LDH). Format: biochemical. The note with it: hGYS1/GN1 50 nM, UDP-Glucose 0.8 mM, G6P 1 mM; geometric mean of at least 2 runs.
Chain of hGYS1 enzyme (recombinant hGYS1/GN1 protein) (P13807 whole entry): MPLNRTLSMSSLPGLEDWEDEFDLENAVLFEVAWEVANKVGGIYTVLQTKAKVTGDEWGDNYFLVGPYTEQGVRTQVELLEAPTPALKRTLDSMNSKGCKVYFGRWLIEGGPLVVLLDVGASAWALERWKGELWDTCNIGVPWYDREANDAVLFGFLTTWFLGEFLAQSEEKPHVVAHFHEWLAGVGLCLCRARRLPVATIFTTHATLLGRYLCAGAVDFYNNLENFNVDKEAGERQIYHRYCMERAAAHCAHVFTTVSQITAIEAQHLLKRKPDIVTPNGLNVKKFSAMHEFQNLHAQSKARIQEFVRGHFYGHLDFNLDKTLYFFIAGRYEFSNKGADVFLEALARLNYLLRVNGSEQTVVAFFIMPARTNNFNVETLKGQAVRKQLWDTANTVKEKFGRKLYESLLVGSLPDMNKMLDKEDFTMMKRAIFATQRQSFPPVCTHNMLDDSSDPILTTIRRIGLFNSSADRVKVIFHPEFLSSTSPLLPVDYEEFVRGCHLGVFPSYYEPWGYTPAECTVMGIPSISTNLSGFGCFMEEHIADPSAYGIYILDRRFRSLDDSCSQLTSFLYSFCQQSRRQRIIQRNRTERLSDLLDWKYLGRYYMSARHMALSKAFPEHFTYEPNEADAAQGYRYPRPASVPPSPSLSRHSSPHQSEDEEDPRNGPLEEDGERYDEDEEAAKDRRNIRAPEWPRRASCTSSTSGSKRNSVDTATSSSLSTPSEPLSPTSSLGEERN
Chain of hGYS1 enzyme (recombinant hGYS1/GN1 protein) (P46976 whole entry partner): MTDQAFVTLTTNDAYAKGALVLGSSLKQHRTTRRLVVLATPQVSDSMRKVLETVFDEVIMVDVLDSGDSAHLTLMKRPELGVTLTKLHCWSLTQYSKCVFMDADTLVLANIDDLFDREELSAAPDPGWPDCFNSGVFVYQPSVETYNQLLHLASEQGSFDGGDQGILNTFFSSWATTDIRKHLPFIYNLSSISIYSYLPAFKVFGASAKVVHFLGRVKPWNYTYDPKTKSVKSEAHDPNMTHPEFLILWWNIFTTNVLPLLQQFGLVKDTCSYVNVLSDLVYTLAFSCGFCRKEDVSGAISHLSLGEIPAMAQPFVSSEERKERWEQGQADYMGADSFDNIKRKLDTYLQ

This is an account of results in patent US11814367B2, “Inhibitors of glycogen synthase 1 (GYS1) and methods of use thereof” (Maze Therapeutics, Inc., priority 2021, dated 2023).

Chain of hGYS2 enzyme (recombinant hGYS2/GN1 protein) (P54840 whole entry): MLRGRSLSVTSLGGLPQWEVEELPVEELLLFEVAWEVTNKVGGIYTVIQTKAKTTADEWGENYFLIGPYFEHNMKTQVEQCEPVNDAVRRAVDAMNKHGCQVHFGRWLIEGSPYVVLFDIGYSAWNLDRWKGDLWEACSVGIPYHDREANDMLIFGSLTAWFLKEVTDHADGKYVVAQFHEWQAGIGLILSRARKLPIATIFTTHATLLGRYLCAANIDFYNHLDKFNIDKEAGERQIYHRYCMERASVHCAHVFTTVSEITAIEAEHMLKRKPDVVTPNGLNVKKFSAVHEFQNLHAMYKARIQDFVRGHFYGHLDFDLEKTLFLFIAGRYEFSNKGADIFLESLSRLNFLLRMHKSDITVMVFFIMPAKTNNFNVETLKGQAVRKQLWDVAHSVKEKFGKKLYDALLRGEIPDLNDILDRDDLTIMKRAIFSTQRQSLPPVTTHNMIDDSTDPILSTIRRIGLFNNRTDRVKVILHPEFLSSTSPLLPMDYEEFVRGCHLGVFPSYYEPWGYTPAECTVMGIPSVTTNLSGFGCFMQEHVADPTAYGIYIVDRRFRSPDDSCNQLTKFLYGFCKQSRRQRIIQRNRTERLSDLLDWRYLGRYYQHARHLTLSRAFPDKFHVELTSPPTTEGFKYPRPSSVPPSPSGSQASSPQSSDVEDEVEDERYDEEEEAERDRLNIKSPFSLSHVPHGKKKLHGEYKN
Chain of hGYS2 enzyme (recombinant hGYS2/GN1 protein) (P46976 whole entry partner): as the sequence (P46976 whole entry partner) above

As to `CC(C)c1ccc([C@@H](NC(=O)[C@@H]2C[C@@H](F)CN2C(=O)Cn2cnc3ccccc32)c2ccccc2)nc1` [Compound 248, (2S,4R)-1-[2-(1H-1,3-benzodiazol-1-yl)acetyl]-4-fluoro-N-[(S)-phenyl[5-(propan-2-yl)pyridin-2-yl]methy]pyrrolidine-2-carboxamide], the IC50 is more than 100000 nM in experiment [1], 200 nM in experiment [2] and 12 nM in experiment [3].

`Cc1cn(CC(=O)N2C[C@H](F)C[C@H]2C(=O)N[C@@H](c2ccccc2)c2ccc(C(C)C)cn2)c(=O)[nH]c1=O` [Compound 249, (2S,4R)-4-fluoro-1-[2-(5-methyl-2,4-dioxo-1,2,3,4-tetrahydropyrimidin-1-yl)acetyl]-N-[(S)-phenyl[5-(propan-2-yl)pyridin-2-yl]methyl]pyrrolidine-2-carboxamide]: the IC50 in experiment [1] is more than 100000 nM; in experiment [2] it was 1150 nM; in experiment [3] it was 21 nM.

With `CC(C)c1ccc([C@@H](NC(=O)[C@@H]2C[C@@H](F)CN2C(=O)CNC(=O)N(C)C)c2ccccc2)nc1` [Compound 250, (2S,4R)-1-{2-[(dimethylcarbamoyl)amino]acetyl}-4-fluoro-N-[(S)-phenyl[5-(propan-2-yl)pyridin-2-yl]methyl]pyrrolidine-2-carboxamide], the IC50 in experiment [1] was more than 100000 nM; in experiment [2], 1270 nM; in experiment [3] it was 43 nM.

For `CC(C)c1ccc([C@@H](NC(=O)[C@@H]2C[C@@H](F)CN2C(=O)Cn2cnnn2)c2ccccc2)nc1` [Compound 252, (2S,4R)-4-fluoro-N-[(S)-phenyl[5-(propan-2-yl)pyridin-2-yl]methyl}-1-[2-(1H-1,2,3-tetrazol-1-yl)acetyl]pyrrolidine-2-carboxamide], the figures for the IC50 in experiment [1], in experiment [2] and in experiment [3] were more than 100000 nM, 2480 nM and 186 nM, respectively.

With `CC(C)c1ccc([C@@H](NC(=O)[C@@H]2C[C@@H](F)CN2C(=O)Cc2nnc(C(F)F)o2)c2ccccc2)nc1` [Compound 253, (2S,4R)-1-{2-[5-(difluoromethyl)-1,3,4-oxadiazol-2-yl]acetyl}-4-flouro-N-[(S)-phenyl[5-(propan-2-yl)pyridin-2-yl]methyl]pyrrolidine-2-carboxamide], the IC50 in experiment [1] was more than 100000 nM; in experiment [2], 1090 nM; in experiment [3], 67 nM.

For the compound `CC(C)c1ccc([C@@H](NC(=O)[C@@H]2C[C@@H](F)CN2C(=O)Cn2nnnc2C(F)F)c2ccccc2)nc1` [Compound 254, (2S,4R)-1-{2-[5-(difluoromethyl)-1H-1,2,3-tetrazol-1-yl]acetyl}-4-fluoro-N-[(S)-phenyl[5-(propan-2-yl)pyridin-2-yl]methyl]pyrrolidine-2-carboxamide], the IC50 in experiment [1] is more than 100000 nM; in experiment [2], 1230 nM; in experiment [3], 75 nM.

As for `CC(C)c1ccc([C@@H](NC(=O)[C@@H]2C[C@@H](F)CN2C(=O)Cn2nnc(C(F)(F)F)n2)c2ccccc2)nc1` [Compound 255, (2S,4R)-4-fluoro-N-[(S)-phenyl[5-(propan-2-yl)pyridin-2-yl]methyl]-1-{2-[5-(trifluoromethyl)-2H-1,2,3,4-tetrazol-2-yl]acetyl}pyrrolidine-2-carboxamide], the IC50 is more than 100000 nM in experiment [1], 1010 nM in experiment [2] and 88 nM in experiment [3].

As for `CC(C)c1ccc([C@@H](NC(=O)[C@@H]2C[C@@H](F)CN2C(=O)Cn2nnc(C(F)F)n2)c2ccccc2)nc1` [Compound 256, (2S,4R)-1-{2-[5-(difluoromethyl)-2H-1,2,3,4-tetrazol-2-yl]acetyl}-4-fluoro-N-[(S)-phenyl[5-(propan-2-yl)pyridin-2-yl]methyl]pyrrolidine-2-carboxamide], the IC50 was more than 100000 nM in experiment [1], 990 nM in experiment [2] and 39 nM in experiment [3].

As for `Cc1ccc2c(CC(=O)N3C[C@H](F)C[C@H]3C(=O)N[C@@H](c3ccccc3)c3ccc(C(C)C)cn3)cccc2n1` [Compound 257, (2S,4R)-4-fluoro-1-[2-(2-methylquinolin-5-yl)acetyl]-N-[(S)-phenyl[5-(propan-2-yl)pyridin-2-yl]methyl]pyrrolidine-2-carboxamide], the IC50 in experiment [1] is more than 100000 nM; in experiment [2] it was 240 nM; in experiment [3], 7 nM.

On to `CC(C)c1ccc([C@@H](NC(=O)[C@@H]2C[C@@H](F)CN2C(=O)Cc2cccn3c(=O)[nH]nc23)c2ccccc2)nc1` [Compound 258, (2S,4R)-4-fluoro-1-(2-{3-oxo-2H,3H-[1,2,4]triazolo[4,3-a]pyridin-8-yl}acetyl)-N-[(S)-phenyl[5-(propan-2-yl)pyridin-2-yl]methyl]pyrrolidine-2-carboxamide], for which the IC50 in experiment [1] is more than 100000 nM; in experiment [2], 740 nM; in experiment [3] it was 26 nM.

Turning to `CC(C)c1ccc([C@@H](NC(=O)[C@@H]2C[C@@H](F)CN2C(=O)Cn2ncc(N(C)C)n2)c2ccccc2)nc1` [Compound 259, (2S,4R)-1-{2-[4-(dimethylamino)-2H-1,2,3-triazol-2-yl]acety}-4-fluoro-N-[(S)-phenyl[5-(propan-2-yl)pyridin-2-yl]methyl]pyrrolidine-2-carboxamide], the IC50 is more than 100000 nM in experiment [1], 280 nM in experiment [2] and 15 nM in experiment [3].

On to `CC(C)c1ccc([C@@H](NC(=O)[C@@H]2C[C@@H](F)CN2C(=O)Cn2cc(N(C)C)nn2)c2ccccc2)nc1` [Compound 260, (2S,4R)-1-{2-[4-(dimethylamino)-1H-1,2,3-triazol-1-yl]acetyl}-4-fluoro-N-[(S)-phenyl[5-(propan-2-yl)pyridin-2-yl]methyl]pyrrolidine-2-carboxamide], for which the IC50 in experiment [1] is more than 100000 nM; in experiment [2] it was 530 nM; in experiment [3], 35 nM.

Take `CNC(=O)NCC(=O)N1C[C@H](F)C[C@H]1C(=O)N[C@@H](c1ccccc1)c1ccc(C(C)C)cn1` [Compound 261, (2S,4R)-4-fluoro-1-{2-[(methylcarbamoyl)amino]acetyl}-N-[(S)-phenyl[5-(propan-2-yl)pyridin-2-yl]methyl]pyrrolidine-2-carboxamide]: the IC50 in experiment [1] is more than 100000 nM; in experiment [2], 1800 nM; in experiment [3], 59 nM.

Take `CC(C)c1ccc([C@@H](NC(=O)[C@@H]2C[C@@H](F)CN2C(=O)CNC(N)=O)c2ccccc2)nc1` [Compound 262, (2S,4R)-1-[2-(carbamoylamino)acetyl]-4-fluoro-N-[(S)-phenyl[5-(propan-2-yl)pyridin-2-yl]methyl]pyrrolidine-2-carboxamide]: the figures for the IC50 in experiment [1], in experiment [2] and in experiment [3] were more than 100000 nM, 3630 nM and 62 nM, respectively.

As for `CC(C)c1ccc([C@@H](NC(=O)[C@@H]2C[C@@H](F)CN2C(=O)Cc2nn(C)c(=O)[nH]2)c2ccccc2)nc1` [Compound 263, (2S,4R)-4-fluoro-1-[2-(1-methyl-5-oxo-4,5-dihydro-1H-1,2,4-triazol-3-yl)acetyl]-N-[(S)-phenyl[5-(propan-2-yl)pyridin-2-yl]methyl]pyrrolidine-2-carboxamide], the IC50 in experiment [1] was more than 100000 nM; in experiment [2], 1950 nM; in experiment [3], 80 nM.

As for `CC(C)c1ccc([C@@H](NC(=O)[C@@H]2C[C@@H](F)CN2C(=O)Cc2n[nH]c(=O)n2C)c2ccccc2)nc1` [Compound 264, (2S,4R)-4-fluoro-1-[2-(4-methyl-5-oxo-4,5-dihydro-1H-1,2,4-triazol-3-yl)acetyl]-N-[(S)-phenyl[5-(propan-2-yl)pyridin-2-yl]methyl]pyrrolidine-2-carboxamide], the IC50 in experiment [1] was more than 100000 nM; in experiment [2], 4290 nM; in experiment [3], 130 nM.

As for `CC(C)c1ccc([C@@H](NC(=O)[C@@H]2C[C@@H](F)CN2C(=O)CNC(=O)N2CCC2)c2ccccc2)nc1` [Compound 265, (2S,4R)-1-{2-[(azetidine-1-carbonyl)amino]acetyl}-4-fluoro-N-[(S)-phenyl[5-(propan-2-yl)pyridin-2-yl]methyl]pyrrolidine-2-carboxamide], the figures for the IC50 in experiment [1], in experiment [2] and in experiment [3] were more than 100000 nM, 830 nM and 41 nM, respectively.

For `CC(C)c1ccc([C@@H](NC(=O)[C@@H]2C[C@@H](F)CN2C(=O)Cc2nn(C)c(=O)o2)c2ccccc2)nc1` [Compound 266, (2S,4R)-4-fluoro-1-[2-(4-methyl-5-oxo-4,5-dihydro-1,3,4-oxadiazol-2-yl)acetyl]-N-[(S)-phenyl[5-(propan-2-yl)pyridin-2-yl]methyl]pyrrolidine-2-carboxamide], the IC50 in experiment [1] was more than 100000 nM; in experiment [2] it was 1220 nM; in experiment [3] it was 89 nM.

Take `CC(C)c1ccc([C@@H](NC(=O)[C@@H]2C[C@@H](F)CN2C(=O)Cc2[nH]nnc2C(F)(F)F)c2ccccc2)nc1` [Compound 268, (2S,4R)-4-fluoro-N-[(S)-phenyl[5-(propan-2-yl)pyridin-2-yl]methyl]-1-{2-[4-(trifluoromethyl)-1H-1,2,3-triazol-5-yl]acetyl}pyrrolidine-2-carboxamide]: the figures for the IC50 in experiment [1], in experiment [2] and in experiment [3] were more than 100000 nM, 830 nM and 18 nM, respectively.

Regarding `Cc1nccc(NCC(=O)N2C[C@H](F)C[C@H]2C(=O)N[C@@H](c2ccccc2)c2ccc(C(C)C)cn2)n1` [Compound 269, (2S,4R)-4-fluoro-1-{2-[(2-methylpyrimidin-4-yl)amino]acetyl}-N-[(S)-phenyl[5-(propan-2-yl)pyridin-2-yl]methyl]pyrrolidine-2-carboxamide], the IC50 in experiment [1] was more than 100000 nM; in experiment [2] it was 240 nM; in experiment [3], 14 nM.
